The values that follow come from patent US8703813B2, “Compound with spiro chiral carbon backbone, preparation method thereof, and pharmaceutical composition containing the same” (SNU R & DB Foundation, priority 2008, dated 2014).

One data set concerns C3H/10T1/2 cells. Kind of data set: Osteoblast formation activity (calcium deposition assay, Alizarin Red S). The class given is cell-based, mouse. As to the method:
C3H/10T1/2 cells, which are mouse mesenchymal progenitor cells purchased from ATCC, were diluted in DMEM (Dulbecco's Modified Eagle Medium) medium containing 5.958 g/L HEPES, 3.7 g/L sodium bicarbonate, and 10% FBS (fetal bovine serum), and cultured in 24-well culture plates at a density of 4×10^4 cells/well, in the presence of 5% CO2 at 37° C. for 2 days. The cultured cells were grown to 90˜100% confluency in the culture plates, the cells were cultured in DMEM medium containing 10% FBS, to which 10 mM of β-glycerophosphate and 50μ/ml of ascorbic acid were added, in the presence of 5% CO2 at 37° C. for 6 days, to induce differentiation into osteoblast. The medium was exchanged every other day during differentiation. The C3H/10T1/2 cell line, in which differentiation into the osteoblast was induced, was washed with PBS (Phosphate Buffered Saline) once, and fixed with 70% ethanol at 20° C. for 1 hour. The cells after fixing were washed with cold PBS three times, and stained with 40 mM Alizarin Red S dye solution at room temperature for 20 minutes. The dye solution was removed and the cells were washed with distilled water three times in order to selectively observe only the cells differentiated into the osteoblast.
An aliquot 116V and an aliquot 116VI extracted and partitioned from sponges are dissolved in a DMSO solvent, and used to treat the C3H/10T1/2 cell line, mesenchymal progenitor cells, at concentrations of 1, 2.5, 5, 10, and 20 ug/ml. […] Since then, the same experiment was performed on the compound (1163), the compound 2 (1162), the compound 3 (1161), and the compound 4 (1164), which were purely separated from the aliquots 116V and 116VI, and as a result, it could be confirmed that the osteoblast differentiation ability was increased in the compounds 1, 3, and 4. […] To study a mechanism with respect to osteoblast differentiation ability, the C3H/10T1/2 cell lines were treated with the compound 1 and the compound 4 for 6 days, respectively. […] Also, the C3H/10T1/2 cell lines were treated with the compound 1 and the compound 4 for 6 days, respectively. […] Furthermore, it could be ascertained that combining of Runx2 and TAZ proteins was increased by treatment of the compounds and thus the activity of Runx2-meditated transcription was increased. The compound 5, which is an ester derivative of the compound 1 (1163), was synthesized in order to prepare a material having more excellent bioactivity, and the structure of the compound 5 obtained thus was determined. […] Therefore, the compounds of the present invention and derivatives thereof are expected to promote the differentiation of the osteoblast and thus play an innovative role in treatment of osteoporosis.

A further data set has as its system Runx2 and TAZ. Kind of data set: Western blot of osteoblast differentiation mark factors. The note with it: C3H/10T1/2 treated for 6 days. The class given is cell-based, mouse. How it is done:
An aliquot 116V and an aliquot 116VI extracted and partitioned from sponges are dissolved in a DMSO solvent, and used to treat the C3H/10T1/2 cell line, mesenchymal progenitor cells, at concentrations of 1, 2.5, 5, 10, and 20 ug/ml. […] Since then, the same experiment was performed on the compound (1163), the compound 2 (1162), the compound 3 (1161), and the compound 4 (1164), which were purely separated from the aliquots 116V and 116VI, and as a result, it could be confirmed that the osteoblast differentiation ability was increased in the compounds 1, 3, and 4. […] To study a mechanism with respect to osteoblast differentiation ability, the C3H/10T1/2 cell lines were treated with the compound 1 and the compound 4 for 6 days, respectively. […] Also, the C3H/10T1/2 cell lines were treated with the compound 1 and the compound 4 for 6 days, respectively. […] Furthermore, it could be ascertained that combining of Runx2 and TAZ proteins was increased by treatment of the compounds and thus the activity of Runx2-meditated transcription was increased. The compound 5, which is an ester derivative of the compound 1 (1163), was synthesized in order to prepare a material having more excellent bioactivity, and the structure of the compound 5 obtained thus was determined. […]
For orientation: In western blotting, separated proteins are transferred to a membrane and probed.

The next data set relates to other nuclear receptors. Kind of data set: Selectivity for various nuclear receptors, transfection assay. The class given is cell-based. To be noted: same method as LXR assay. As to the method: Animal cell line CV-1 was used in transfection search. Cells were cultured in DMEM medium within a cell culture device containing 5% carbon dioxide at 37° C. The medium contained 10% FBS (fetal bovine serum), 100 U/ml penicillin, and 100 μg/ml streptomycin. On day 1 of the experiment, CV 1 cells were seeded in 96 well plates at 5,000 cells/well. On day 2, the seeded cells were transfected with plasmid expressing GAL-hLXR, plasmid expressing Luciferase gene, and plasmid expressing β-galactocidase by using a transfection reagent, Superfect (QIAGEN). After 16 hours, the transfected cells were treated with the compound 1 dissolved in dimethylsulfoxide (DMSO) by the concentrations, together with the agonist, TO901317 (2.5 μM). Cells treated with dimethylsulfoxide having the final concentration of 1% were used as a negative control group, and cells treated with T0901317 having the final concentration of 500 nM were used as a positive control group. The cells were cultured for 24 hours, and lysed by using a lysis buffer. […] The β-galactosidase activity, after adding of an ONPG reagent, was measured using an ELISA reader. The measured Luciferase value was corrected by activity value of β-galactosidase. […] In addition, the activities on various nuclear receptors were measured by using the same method, in order to measure selectivity for various nuclear receptors.

SMILES strings stand for the structures.

As to `CC(C)=CCC/C(C)=C/[C@H]1CC(C)=C[C@@]2(C=C(CO)[C@@H]3CC(=O)C(C)=C[C@@H]3O2)O1` [Compound 1], the “osteoblast differentiation ability, concentration dependence” value with C3H/10T1/2 cells (C3H/10T1/2, 1, 2.5, 5, 10, and 20 ug/ml, 6 days) is reported as “remarkably increased at the concentrations of up to 10 ug/ml in a concentration-dependent manner”. For the same molecule, the osteoblast differentiation ability result in the data set on C3H/10T1/2 cells (C3H/10T1/2, calcium deposition) was “increased”. The “concentration at which cytotoxicity was observed” value with C3H/10T1/2 cells (C3H/10T1/2 during osteoblast differentiation) turned out to be 20 µg/mL. Besides, in the data set with Runx2 and TAZ, the “protein expression of Runx2 and TAZ” value was “increased”. The “activity on the other nuclear receptors” value in the data set on other nuclear receptors is “never showed the activity”.
